The record followed here is patent US8586613B2, “Pyridinium and quinolinium derivatives” (Universidad de Granada, priority 2004, dated 2013).

Experiment [1] relates to HT-29 cells. Put plainly: HT-29 cell proliferation assay (Crystal Violet). The class given is cell-based, human. Particulars: six days of treatment. As to the method: The HT-29 cells were seeded in 24-well plates (35×10^3 cells/well) and were incubated for 24 hours. Then the cells were treated with different concentrations of ChoK inhibitors in the usual culture medium. Three days later, the wells were aspirated and both fresh medium and more amount of drug were added, and the cells were maintained for three more days. The quantification of the remaining cells in each well was carried out by means of the Crystal Violet method [Gillies, R. J., Didier, N., Denton, M. Anal. Biochem. 159, 109-113 (1986)], with some modifications [Hernández-Alcoceba, R., Saniger, L., Campos, J., Núñez, M. C., Khaless, F., Gallo, M. Á., Espinosa, A., Lacal, J. C. Oncogene, 15, 2289-2301 (1997)]. Briefly, the cells were washed with TD buffer and fixed with 1% glutaraldehyde for 15 minutes. After washing again with TD, the cell nuclei were coloured with 0.1% Crystal Violet for at least 30 minutes and washed three times with distilled water. The adsorbed colouring was resuspended in 10% acetic acid and the absorbance at 595 nm was determined in a spectrometer. […] This value determined by iterative curve adjustment. Two values are determined for each point of the curve, the experiment was repeated two or three times and the mean values were estimated. In the few cases in which the two values differed more than 50%, a third experiment was carried out to determine the real value. The IC50 value as a potency measurement is used to relate the biological activity of the compounds with their chemical structure.

The target of experiment [2] is T1, Human ChoK (Homo sapiens, UniProt P35790).
T1 construct: made in house; host or cells: E. coli
Put plainly: Ex vivo assay of the activity of human ChoK (recombinant choline kinase expressed in E. coli). The class given is biochemical. As to the method: Recombinant choline kinase expressed in E. coli in the buffer assay (100 mM Tris-HCl pH 8.0, 100 mM MgCl2, 10 mM ATP and 200 μM of choline in the presence of methyl[^14C]-choline chloride (50-60 μCi/mmol)) was used for the ex vivo assays. […] The samples were washed with diethyl ether saturated with water and were lyophilized. The hydrophilic choline derivatives were resolved in thin layer chromatography plates according to a described process [Ramírez, A., Penalva, V., Lucas, L., Lacal, J. C.

Setting [3] is: recombinant human ChoK, 37° C., 30 minutes.

Like-named read-outs stand apart in the source and are kept apart here.

T1 sequence (P35790 whole entry): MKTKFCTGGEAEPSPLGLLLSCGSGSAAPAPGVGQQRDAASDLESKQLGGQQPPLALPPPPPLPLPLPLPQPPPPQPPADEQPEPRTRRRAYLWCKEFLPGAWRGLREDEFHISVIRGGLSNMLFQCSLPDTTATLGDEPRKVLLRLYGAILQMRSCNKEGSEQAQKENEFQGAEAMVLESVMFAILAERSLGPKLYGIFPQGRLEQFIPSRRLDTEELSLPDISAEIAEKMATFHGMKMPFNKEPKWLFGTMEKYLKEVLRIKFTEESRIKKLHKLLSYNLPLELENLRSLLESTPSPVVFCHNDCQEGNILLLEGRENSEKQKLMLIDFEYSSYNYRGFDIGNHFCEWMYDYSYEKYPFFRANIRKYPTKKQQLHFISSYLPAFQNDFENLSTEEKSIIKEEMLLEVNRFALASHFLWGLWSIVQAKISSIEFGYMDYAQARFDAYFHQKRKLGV

Turning to “1,1′-(benzene-1,3-diylmethylene)bis[4-(4-chloro-N-methylanilino)pyridinium]dibromide [Compound 1]”, the IC50 in experiment [1] worked out at 3.3 µM; in experiment [2] (setting [3]), 5.7 µM.

In experiment [1], “1,1′-(biphenyl-3,3′-diylmethylene)bis[4-(3,5-dichloro-N-methylanilino)pyridinium]dibromide [Compound 4]” displayed an IC50 of 1.8 µM.

Regarding `CN(c1ccccc1)c1cc[n+](Cc2cccc(-c3cccc(C[n+]4ccc(N(C)c5ccccc5)cc4)c3)c2)cc1.[Br-].[Br-]` [Compound 2, 1,1′-(biphenyl-3,3′-diylmethylene)bis[4-(N-methylanilino)pyridinium]dibromide], the IC50 stood at 2.2 µM in experiment [1] and 0.42 µM in experiment [2] (setting [3]).

`CN(c1ccc(Cl)cc1)c1cc[n+](Cc2cccc(-c3cccc(C[n+]4ccc(N(C)c5ccc(Cl)cc5)c5ccccc54)c3)c2)c2ccccc12.[Br-].[Br-]` [Compound 5, 1,1′-(biphenyl-3,3′-diylmethylene)bis[4-(4-chloro-N-methylanilino)quinolinium]dibromide]: inhibition in experiment [1] was half-maximal at 1.6 µM (IC50).

In the case of `CN(c1ccc(Cl)cc1)c1cc[n+](Cc2cccc(-c3cccc(C[n+]4ccc(N(C)c5ccc(Cl)cc5)c5ccc(Cl)cc54)c3)c2)c2cc(Cl)ccc12` [Compound 6, 1,1′-(biphenyl-3,3′-diylmethylene)bis[4-(4-chloro-N-methylanilino)-7-chloroquinolinium]dibromide], the half-maximal inhibitory concentration (IC50) in experiment [1] (Homo sapiens, 144 h) is 1.9 µM; in experiment [2] (setting [3]), 5.7 µM.

Turning to `CN(c1ccc(Cl)cc1)c1cc[n+](Cc2ccc(-c3ccc(C[n+]4ccc(N(C)c5ccc(Cl)cc5)c5ccc(Cl)cc54)cc3)cc2)c2cc(Cl)ccc12` [Compound 8, 1,1′-(biphenyl-4,4′-diylmethylene)bis[4-(4-chloro-N-methylanilino)-7-chloroquinolinium]dibromide], the IC50 in experiment [1] (Homo sapiens, 144 h) amounted to 1.2 µM; in experiment [2] (setting [3]), 11.4 µM.

As for `CN(c1ccc(Cl)cc1)c1cc[n+](Cc2ccc(CCc3ccc(C[n+]4ccc(N(C)c5ccc(Cl)cc5)c5ccccc54)cc3)cc2)c2ccccc12` [Compound 9, 1,1′-[ethylenebis(benzene-1,4-diylmethylene)]bis[4-(4-chloro-N-methylanilino)quinolinium]dibromide], the IC50 in experiment [1] (Homo sapiens, 144 h) was determined as 0.7 µM; in experiment [2] (setting [3]), 4.8 µM.

As for `CN(c1ccc(Cl)cc1)c1cc[n+](Cc2ccc(CCc3ccc(C[n+]4ccc(N(C)c5ccc(Cl)cc5)c5ccc(Cl)cc54)cc3)cc2)c2cc(Cl)ccc12` [Compound 10, 1,1′-[ethylenebis(benzene-1,4-diylmethylene)]bis[4-(4-chloro-N-methylanilino)-7-chloroquinolinium]dibromide], the IC50 in experiment [1] (Homo sapiens, 144 h) stood at 0.8 µM; in experiment [2] (setting [3]), 5.7 µM.

On to `c1cc(C[n+]2ccc(N3CCCC3)cc2)cc(-c2cccc(C[n+]3ccc(N4CCCC4)cc3)c2)c1` [EC1, reference compound], for which the IC50 in experiment [2] (setting [3]) is 5.8 µM.

Regarding `c1cc(C[n+]2ccc(N3CCCCC3)cc2)cc(-c2cccc(C[n+]3ccc(N4CCCCC4)cc3)c2)c1` [EC2, reference compound], the concentration for half-maximal inhibition (IC50) in experiment [1] (Homo sapiens, 144 h) is 1.6 µM; in experiment [2], 1.9 µM.

As for `CN(C)c1cc[n+](Cc2cccc(-c3cccc(C[n+]4ccc(N(C)C)c5ccc(Cl)cc54)c3)c2)c2cc(Cl)ccc12` [EC3, reference compound], the IC50 in experiment [1] (Homo sapiens, 144 h) came to 0.7 µM; in experiment [2] (setting [3]), 9.6 µM.

As for `Clc1ccc2c(N3CCCC3)cc[n+](Cc3cccc(-c4cccc(C[n+]5ccc(N6CCCC6)c6ccc(Cl)cc65)c4)c3)c2c1` [EC4, reference compound], the half-maximal inhibitory concentration (IC50) in experiment [1] (Homo sapiens, 144 h) was 0.4 µM; in experiment [2] (setting [3]), 1.2 µM.

On to `Clc1ccc2c(N3CCCC3)cc[n+](Cc3ccc(CCc4ccc(C[n+]5ccc(N6CCCC6)c6ccc(Cl)cc65)cc4)cc3)c2c1` [EC5, reference compound], for which the half-inhibitory concentration (IC50) stood at 0.2 µM in experiment [1] (Homo sapiens, 144 h) and 1 µM in experiment [2] (setting [3]).

On to `CN(C)c1cc[n+](Cc2ccc(CCCc3ccc(C[n+]4ccc(N(C)C)cc4)cc3)cc2)cc1` [EC6, reference compound], for which the half-maximal inhibitory concentration (IC50) in experiment [1] (Homo sapiens, 144 h) was 2.5 µM; in experiment [2] (setting [3]), 22 µM.

The term IC50 denotes the concentration that inhibits the measured activity by half.
